Results: paper PMC11645267, “Novel pharmacologic inhibition of lysine-specific demethylase 1 as a potential therapeutic for glioblastoma” (Cancer Gene Therapy, 2024)

Experiments:
Assay type in all cases: cell-based
glioma stem cells (GSCs) = test: Cell growth / viability in glioma stem cells
Source text: Inhibition of LSD1 can effectively suppress stem-like tumor-propagating cells in human glioma.
Supplementary materials and methods
RNA-seq data of malignant glioma (n=157) and normal tissue (n=5) were obtained from TCGA (http://xena.ucsc.edu/).
(§1) Cell lines and culture conditions
(§2) Glioblastoma cell line, LN229, was obtained from the American Type Culture Collection (ATCC, Manassas, VA, USA). Normal fibroblast cell lines TIG3 and WI-38, TM31 (low grade glioma) were obtained from the RIKEN Bioresource Research Center (Tsukuba, Japan). Onda10 and KINGS1 (low grade glioma) cell lines were obtained from the Japanese Collection of Research Bioresources (Ibaraki, Japan). F3 is utilized as a neural stem cell line{Kim, 2004 #1412}{Natsume, 2013 #1009}. All cells were maintained in DMEM medium (Wako, Osaka, Japan) containing 5% fetal bovine serum (FBS, Thermo Fisher Scientific, Waltham, MA, USA) and 1% penicillin-streptomycin (Wako). Glioma stem cell lines (GSC1228, GSC316, and GSC222) were established previously{Natsume, 2013 #1009}{Katsushima, 2016 #1156}. […]
(§3) For the cell proliferation assay, cells at a density of 1 × 10^5 cells per well were seeded before treatment with LSD1 inhibitors. Cell proliferation was measured after 4 days using a Cell Counting Kit 8 (Dojindo, Kumamoto, Japan) according to the manufacturer ’s […]

TIG3 = test: Cell proliferation assay (Cell Counting Kit 8); conditions: Homo sapiens, TIG-3, 96 h; TIG3 (normal fibroblast), 4 days; read-out: Growth inhibitory IC50 (GI50)
Source text: (§4) Supplementary materials and methods […]
as §1
as §2, with “(Wako).” for “(Wako). Glioma stem cell lines (GSC1228, GSC316, and GSC222) were established previously{Natsume, 2013 #1009}{Katsushima, 2016 #1156}.”
as §3
(§5) instructions. For GSC cells, the CellTiter-Glo 3D Viability Assay (Promega, Madison, WI, USA) was used to measure the living cells. […]

LN229 = test: Cell proliferation assay (Cell Counting Kit 8); conditions: Homo sapiens, LN-229, 96 h; LN229 (GBM cell line), 4 days; read-out: Growth inhibitory IC50 (GI50)
Source text: as §4, §1
as §2, with “(Wako).” for “(Wako). Glioma stem cell lines (GSC1228, GSC316, and GSC222) were established previously{Natsume, 2013 #1009}{Katsushima, 2016 #1156}.”
as §3, §5

TM31 = test: Cell proliferation assay (Cell Counting Kit 8); conditions: 96 h; TM31 (grade III glioma), 4 days; read-out: Growth inhibitory IC50 (GI50)
Source text: as §4, §1
as §2, with “(Wako).” for “(Wako). Glioma stem cell lines (GSC1228, GSC316, and GSC222) were established previously{Natsume, 2013 #1009}{Katsushima, 2016 #1156}.”
as §3, §5

F3 = test: Cell proliferation assay (Cell Counting Kit 8); conditions: 96 h; F3 (normal neural stem cell line), 4 days; read-out: Growth inhibitory IC50 (GI50)
Source text: as §4, §1
as §2, with “(Wako).” for “(Wako). Glioma stem cell lines (GSC1228, GSC316, and GSC222) were established previously{Natsume, 2013 #1009}{Katsushima, 2016 #1156}.”
as §3, §5

WI38 = test: Cell proliferation assay (Cell Counting Kit 8); conditions: Homo sapiens, WI-38, 96 h; WI38 (normal fibroblast), 4 days; read-out: Growth inhibitory IC50 (GI50)
Source text: as §4, §1
as §2, with “(Wako).” for “(Wako). Glioma stem cell lines (GSC1228, GSC316, and GSC222) were established previously{Natsume, 2013 #1009}{Katsushima, 2016 #1156}.”
as §3, §5

Onda10 = test: Cell proliferation assay (Cell Counting Kit 8); conditions: 96 h; Onda10 (grade III glioma), 4 days; read-out: Growth inhibitory IC50 (GI50)
Source text: as §4, §1
as §2, with “(Wako).” for “(Wako). Glioma stem cell lines (GSC1228, GSC316, and GSC222) were established previously{Natsume, 2013 #1009}{Katsushima, 2016 #1156}.”
as §3, §5

KINGS1 = test: Cell proliferation assay (Cell Counting Kit 8); conditions: Homo sapiens, KINGS-1, 96 h; KINGS1 (grade III glioma), 4 days; read-out: Growth inhibitory IC50 (GI50)
Source text: as §4, §1
as §2, with “(Wako).” for “(Wako). Glioma stem cell lines (GSC1228, GSC316, and GSC222) were established previously{Natsume, 2013 #1009}{Katsushima, 2016 #1156}.”
as §3, §5

NC1CCC(NC2CC2c2cc(F)cc(F)c2OCc2ccccc2)CC1 (stereo not drawn) [S2172]
viability at 5 µM (glioma stem cells (GSCs); GSC cells, 5 μM, read-out: viable cells): < 80%
IC50 (glioma stem cells (GSCs); mean over glioma stem cells, read-out: mean half-maximal inhibitory concentration (IC50), cell growth in GSCs): 13.8 µM
IC50 (TIG3): > 40 µM
IC50 (LN229): 8.2 µM
IC50 (TM31): 17 µM
IC50 (F3): 22.5 µM
IC50 (WI38): 29.9 µM
IC50 (Onda10): 21 µM
IC50 (KINGS1): 33 µM
